Results published in ChEMBL document CHEMBL4418276, “Boldine derivatives for promoting bone growth” (2014).
pIC50: −log10 of the molar value.

Target: T1, Sclerostin (Homo sapiens, UniProt Q9BQB4)
T1 sequence (Q9BQB4 whole entry): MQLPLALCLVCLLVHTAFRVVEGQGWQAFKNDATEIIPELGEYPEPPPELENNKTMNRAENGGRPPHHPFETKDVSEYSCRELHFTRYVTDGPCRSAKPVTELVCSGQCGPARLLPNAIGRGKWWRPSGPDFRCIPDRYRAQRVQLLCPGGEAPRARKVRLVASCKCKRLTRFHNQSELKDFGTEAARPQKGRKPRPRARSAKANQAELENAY
Assay: Inhibition of sclerostin in human embryonic cells assessed as restoration of Wnt signaling by luciferase reporter gene assay
Assay type: cell-based

COc1cc2c(cc1OC)-c1c(OC)c(OC)c(C=O)c3c1[C@H](C2)N(C)CC3
pIC50: 5.82
